What was measured:
[1] = Kinetic thiol consumption assay with model thiol glutathione; type: physicochemical; design: Rate constant with glutathione (k(GSH)): unit not given here; settings: for Rate constant with glutathione (k(GSH)): 500 μM ligand, 5 μM thiol, phosphate buffer pH 8; for Rate constant with Glutathione: Protein: Glutathione, cysteine position NA, in h-1
Method in brief: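 First, 5 μM glutathione in degassed phosphate buffer (pH 8) receives immobilized TCEP beads (2% v/v). Then acrylamide is added and plates incubate 1 h at room temperature. Finally, fluorescence (380/470 nm) is normalized and fitted to first-order decay for rate constants.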

Cdk2[C177A, F80C, K278C] = biological target: T1, Cdk2[C177A, F80C, K278C] (Homo sapiens, UniProt P24941, C177A/F80C/K278C); test: Kinetic thiol consumption assay with mutant Cdk2 as model thiol; type: binding; design: unit not given here; settings: 500 μM ligand, 5 μM thiol, phosphate buffer pH 8
T1 construct: poly-histidine; made in house; host or cells: E. coli
Experimental: A library of 120 acrylamides was screened against a) human cyclin-dependent kinase 2 (Cdk2, which contains one surface exposed cysteine residue—C177), prepared by cloning cDNA into the pRSETA bacterial expression vector to generate a poly-histidine tagged Cdk2 fusion that was purified from E. coli using standard techniques, and b) a model thiol (specific details are given below). The structures of these 120 acrylamides are set out in Table 1, above.
To wells containing 150 μL thiol (Cdk2 or model thiol) (5 μM) in degassed phosphate buffer (pH 8) was added immobilized TCEP beads (2% v/v).
After incubation of the fluorescence plates for 1 hour at room temperature, fluorescence measurements (excitation/emission of 380/470 nm) were taken on a PerkinElmer EnVision multilabel plate reader and processed with EnVision Workstation version 1.12.
Fluorescence measurements were normalized against a DMSO/thiol only control and plotted against time.
Rate constants were calculated using GraphPad software Prism version 6 by fitting a first order exponential decay to the data. The rate constant for each acrylamide with Cdk2 was divided by the rate constant for that fragment with the model thiol to provide the rate enhancement for each ligand candidate.
The model thiol used in Example 2 is a mutant form of human Cdk2 (C177A, F80C, K278C) which contains two engineered surface exposed cysteine residues. Mutations were introduced by site-directed mutagenesis and the resulting cDNA was cloned into the pRSETA bacterial expression vector to generate a poly-histidine tagged Cdk2 fusion that was purified from E. coli using standard techniques.

Cdk2(N272C) (C177A) = biological target: T2, Cdk2(N272C) (C177A) (Homo sapiens, UniProt P24941, C177A/N272C); test: Kinetic thiol consumption assay with Cdk2 mutant N272C; type: binding; design: key to Rate enhancement, Cdk2 N272: rate constant with Cdk2 ÷ rate constant with model thiol (fold); settings: for Rate enhancement, Cdk2 N272: Cdk2 N272, additional mutation C177A; for Rate constant with Cdk2 N272C: Protein: Cdk2, cysteine position N272C, additional mutation C177A, in h^-1
T2 construct: poly-histidine; made in house; host or cells: E. coli
Method in brief: (§1)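 5 μM thiol, degassed phosphate pH 8, 2% v/v immobilized TCEP beads; 1 h RT; fluorescence ex 380/em 470 nm; normalized vs DMSO/thiol-only; first-order exponential decay fit → rate constant; Cdk2 k / model-thiol k = rate enhancement per acrylamide.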

Cdk2(C177A, F80C) = biological target: T3, Cdk2(C177A, F80C) (Homo sapiens, UniProt P24941, C177A/F80C); test: Kinetic thiol consumption assay with Cdk2 mutant F80C, incl. kobs versus concentration (Kd, k2); type: binding; design: key to Rate enhancement, Cdk2 F80C: Cdk2 rate constant divided by model-thiol rate constant; settings: additional mutation C177A; for Rate constant with Cdk2 F80C: Protein: Cdk2, cysteine position F80C, in h^-1
T3 construct: poly-histidine; made in house; host or cells: E. coli
Method in brief: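 His-tagged Cdk2(C177A/F80C) from E. coli or model thiol, 5 μM in degassed phosphate buffer pH 8 with TCEP beads, reacted with acrylamide ligands; fluorescence (ex/em 380/470 nm) normalized to DMSO control and fitted to first-order decay for kobs. Kd and k2 obtained from hyperbolic fit of kobs versus ligand concentration.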

Cdk2(T182C) (C177A) = biological target: T4, Cdk2(T182C) (C177A) (Homo sapiens, UniProt P24941, C177A/T182C); test: Kinetic thiol consumption assay with Cdk2 mutant T182C; type: binding; design: key to Rate enhancement, Cdk2 T182C: rate constant with Cdk2 ÷ rate constant with model thiol (fold); settings: additional mutation C177A; for Rate constant with Cdk2 T182C: Protein: Cdk2, cysteine position T182C, in h^-1
T4 construct: poly-histidine; made in house; host or cells: E. coli
Method in brief: as §1

Cdk2(R122C) (C177A) = biological target: T5, Cdk2(R122C) (C177A) (Homo sapiens, UniProt P24941, C177A/R122C); test: Kinetic thiol consumption assay with Cdk2 mutant R122C; type: binding; design: key to Rate enhancement, Cdk2 R122C: rate constant with Cdk2 ÷ rate constant with model thiol (fold); settings: additional mutation C177A; for Rate constant with Cdk2 R122C: Protein: Cdk2, cysteine position R122C, in h-1
T5 construct: poly-histidine; made in house; host or cells: E. coli
Method in brief: as §1

Cdk2(S276C) (C177A) = biological target: T6, Cdk2(S276C) (C177A) (Homo sapiens, UniProt P24941, C177A/S276C); test: Kinetic thiol consumption assay with Cdk2 mutant S276C; type: binding; design: key to Rate enhancement, Cdk2 S276C: rate constant with Cdk2 ÷ rate constant with model thiol (fold); settings: additional mutation C177A; for Rate constant with Cdk2 S276C: Protein: Cdk2, cysteine position S276C, in h^-1
T6 construct: poly-histidine; made in house; host or cells: E. coli
Method in brief: as §1

Cdk2(S181C) (C177A) = biological target: T7, Cdk2(S181C) (C177A) (Homo sapiens, UniProt P24941, C177A/S181C); test: Kinetic thiol consumption assay with Cdk2 mutant S181C; type: binding; design: key to Rate enhancement, Cdk2 S181C: rate constant with Cdk2 ÷ rate constant with model thiol (fold); settings: additional mutation C177A; for Rate constant with Cdk2 S181C: Protein: Cdk2, cysteine position S181C, in h^-1
T7 construct: poly-histidine; made in house; host or cells: E. coli
Method in brief: as §1

[2] = biological target: T8, human cyclin-dependent kinase 2 (Cdk2) (Homo sapiens, UniProt P24941); test: Kinetic thiol consumption assay with wild type Cdk2 (C177); type: binding; design: key to Rate enhancement, Cdk2 WT: k(Cdk2) divided by k(model thiol); Rate constant with Cdk2 (k(Cdk2)): unit not given here; settings: for Rate constant with Cdk2 (k(Cdk2)): 500 μM ligand, 5 μM thiol, phosphate buffer pH 8; for Rate enhancement, Cdk2 WT: no additional mutations; for Rate constant with Cdk2 WT: Protein: Cdk2, cysteine position WT, in h^-1; for k(Cdk2)/k(Cdk2_mut) rate enhancement: model thiol Cdk2[C177A, F80C, K278C]; for k(Cdk2)/k(GSH) rate enhancement: model thiol glutathione
T8 construct: poly-histidine; made in house; host or cells: E. coli
Method in brief: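 Rate enhancement: first-order decay constant with Cdk2 over that with a model thiol. Thiols (5 μM, degassed phosphate buffer pH 8, immobilized TCEP) were incubated with acrylamides at room temperature, and thiol consumption followed by fluorescence at 380/470 nm, normalized to DMSO control. Cdk2 was His-tagged, E. coli-expressed, with one surface cysteine (C177).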

Cdk2(H71C) (C177A) = biological target: T9, Cdk2(H71C) (C177A) (Homo sapiens, UniProt P24941, C177A/H71C); test: Kinetic thiol consumption assay with Cdk2 mutant H71C; type: binding; design: key to Rate enhancement, Cdk2 H71C: rate constant with Cdk2 ÷ rate constant with model thiol (fold); settings: additional mutation C177A; for Rate constant with Cdk2 H71C: Protein: Cdk2, cysteine position H71C, in h^-1
T9 construct: poly-histidine; made in house; host or cells: E. coli
Method in brief: as §1

C=CC(=O)N1CCc2sccc2C1c1cccs1 (centres unmarked) [CA-056]
Rate constant with glutathione (k(GSH)) [1]: 0.0174 | Rate constant with Glutathione [1]: 0.01742 | Rate constant with Cdk2[C177A, F80C, K278C] (k(Cdk2_mut)) (Cdk2[C177A, F80C, K278C]): 0.1361 | Rate enhancement, Cdk2 N272 (Cdk2(N272C) (C177A)): 1.548 | Rate constant with Cdk2 N272C (Cdk2(N272C) (C177A)): 0.02696 | Rate enhancement, Cdk2 F80C (Cdk2(C177A, F80C)): 4.984 | Rate constant with Cdk2 F80C (Cdk2(C177A, F80C)): 0.08682 | Rate enhancement, Cdk2 T182C (Cdk2(T182C) (C177A)): 18.35 | Rate constant with Cdk2 T182C (Cdk2(T182C) (C177A)): 0.3197 | Rate enhancement, Cdk2 R122C (Cdk2(R122C) (C177A)): 0.7819 | Rate constant with Cdk2 R122C (Cdk2(R122C) (C177A)): 0.01362 | Rate enhancement, Cdk2 S276C (Cdk2(S276C) (C177A)): 1.776 | Rate constant with Cdk2 S276C (Cdk2(S276C) (C177A)): 0.03094 | Rate enhancement, Cdk2 S181C (Cdk2(S181C) (C177A)): 2.069 | Rate constant with Cdk2 S181C (Cdk2(S181C) (C177A)): 0.03604 | Rate constant with Cdk2 (k(Cdk2)) [2]: 0.02004 | Rate enhancement, Cdk2 WT [2]: 1.15 | Rate constant with Cdk2 WT [2]: 0.02004 | k(Cdk2)/k(Cdk2_mut) rate enhancement [2]: 0.1472 | k(Cdk2)/k(GSH) rate enhancement [2]: 1.152 | Rate enhancement, Cdk2 H71C (Cdk2(H71C) (C177A)): 1.254 | Rate constant with Cdk2 H71C (Cdk2(H71C) (C177A)): 0.02185

C=CC(=O)NC(Cc1ccccc1)C(O)CF (centres unmarked) [EL-1164]
Rate constant with glutathione (k(GSH)) [1]: 0.00485 | Rate constant with Glutathione [1]: 0.007698 | Rate constant with Cdk2[C177A, F80C, K278C] (k(Cdk2_mut)) (Cdk2[C177A, F80C, K278C]): 0.00073 | Rate enhancement, Cdk2 N272 (Cdk2(N272C) (C177A)): 0.09396 | Rate constant with Cdk2 N272C (Cdk2(N272C) (C177A)): 0.0007233 | Rate enhancement, Cdk2 F80C (Cdk2(C177A, F80C)): 0.2794 | Rate constant with Cdk2 F80C (Cdk2(C177A, F80C)): 0.002151 | Rate enhancement, Cdk2 T182C (Cdk2(T182C) (C177A)): 0.1829 | Rate constant with Cdk2 T182C (Cdk2(T182C) (C177A)): 0.001408 | Rate enhancement, Cdk2 R122C (Cdk2(R122C) (C177A)): 0 | Rate enhancement, Cdk2 S276C (Cdk2(S276C) (C177A)): 2.9904E−12 | Rate constant with Cdk2 S276C (Cdk2(S276C) (C177A)): 2.302E−14 | Rate enhancement, Cdk2 S181C (Cdk2(S181C) (C177A)): 0.9819 | Rate constant with Cdk2 S181C (Cdk2(S181C) (C177A)): 0.007559 | Rate constant with Cdk2 (k(Cdk2)) [2]: 0.00239 | Rate enhancement, Cdk2 WT [2]: 0.4757 | Rate constant with Cdk2 WT [2]: 0.003662 | k(Cdk2)/k(Cdk2_mut) rate enhancement [2]: 3.262 | k(Cdk2)/k(GSH) rate enhancement [2]: 0.4934 | Rate enhancement, Cdk2 H71C (Cdk2(H71C) (C177A)): 0

C=CC(=O)N(Cc1ccc2c(c1)CCO2)C1CCCC1 [CA-184]
Rate constant with glutathione (k(GSH)) [1]: 0.01856 | Rate constant with Glutathione [1]: 0.02938 | Rate constant with Cdk2[C177A, F80C, K278C] (k(Cdk2_mut)) (Cdk2[C177A, F80C, K278C]): 0.07366 | Rate enhancement, Cdk2 N272 (Cdk2(N272C) (C177A)): 7.192 | Rate constant with Cdk2 N272C (Cdk2(N272C) (C177A)): 0.2113 | Rate enhancement, Cdk2 F80C (Cdk2(C177A, F80C)): 2.208 | Rate constant with Cdk2 F80C (Cdk2(C177A, F80C)): 0.06488 | Rate enhancement, Cdk2 T182C (Cdk2(T182C) (C177A)): 11.73 | Rate constant with Cdk2 T182C (Cdk2(T182C) (C177A)): 0.3446 | Rate enhancement, Cdk2 R122C (Cdk2(R122C) (C177A)): 0.7583 | Rate constant with Cdk2 R122C (Cdk2(R122C) (C177A)): 0.02228 | Rate enhancement, Cdk2 S276C (Cdk2(S276C) (C177A)): 20.94 | Rate constant with Cdk2 S276C (Cdk2(S276C) (C177A)): 0.6153 | Rate enhancement, Cdk2 S181C (Cdk2(S181C) (C177A)): 10.57 | Rate constant with Cdk2 S181C (Cdk2(S181C) (C177A)): 0.3106 | Rate constant with Cdk2 (k(Cdk2)) [2]: 0.2235 | Rate enhancement, Cdk2 WT [2]: 7.607 | Rate constant with Cdk2 WT [2]: 0.2235 | hit classification, Example 1 ([2]; hits defined as kCdk2/kGSH>5.8 (3 standard deviations over the mean)): hit fragments | k(Cdk2)/k(Cdk2_mut) rate enhancement [2]: 3.034 | k(Cdk2)/k(GSH) rate enhancement [2]: 12.04 | Rate enhancement, Cdk2 H71C (Cdk2(H71C) (C177A)): 7.662 | Rate constant with Cdk2 H71C (Cdk2(H71C) (C177A)): 0.2251
